Test results reported in patent US20250129430A1, “HIGH ATP-AFFINITY PROTEIN AS THERAPEUTIC TARGET FOR INTRACTABLE CANCER MOLECULAR SUBTYPES AND INHIBITOR THEREOF” (VeraVerse Co., Ltd., priority 2021, published 2025).

What was measured:
Experiment in all cases: Cell viability drug screen, 12-point dose-response AUC
Format in all cases: cell-based, human
[1] = test system: FU97; set-up: Average Area Under the Viability Curve (AUC), AUC norm value: scale not given here; details: FU97 cells; 72 hours
In short: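 Trapezoidal AUC of a 12-point, DMSO-normalized dose-response curve. Luminescent viability was measured after 72 h of exposure at 37° C to half-log serial dilutions (0.5% DMSO control), dosed 24 h after plating FU97 cells at 5×10^3 per well.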

[2] = test system: SNU620; details: SNU620 cells; 72 hours
In short: (§1)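 Each cell line receives a twelve-point half-log titration of drug beginning 24 h after plating 5×10^3 cells per well. Following 72 h culture at 37 °C, luminescent signal is recorded and expressed versus vehicle. AUC is derived by the trapezoidal method.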

[3] = test system: SNU719; details: SNU719 cells; 72 hours
In short: as §1

[4] = test system: MKN45; details: MKN45 cells (non-SEM subtype); 72 hours
In short: as §1

[5] = test system: MKN1; details: MKN1 cells; 72 hours
In short: as §1

[6] = test system: AGS; details: AGS cells (non-SEM subtype); 72 hours
In short: as §1

[7] = test system: SNU484; details: SNU484 cells (SEM subtype); 72 hours
In short: as §1

[8] = test system: SNU601; details: SNU601 cells; 72 hours
In short: as §1

[9] = test system: SNU1; details: SNU1 cells; 72 hours
In short: as §1

[10] = test system: NCI_N87; details: NCI_N87 cells; 72 hours
In short: as §1

[11] = test system: NCC24; details: NCC24 cells; 72 hours
In short: as §1

[12] = test system: SNU216; details: SNU216 cells (non-SEM subtype); 72 hours
In short: as §1

[13] = test system: YCC11; details: YCC11 cells (SEM subtype); 72 hours
In short: as §1

[14] = test system: KATO3; details: KATO3 cells; 72 hours
In short: as §1

[15] = test system: SNU638; details: SNU638 cells; 72 hours
In short: as §1

[16] = test system: SNU1750; details: SNU1750 cells (SEM subtype); 72 hours
In short: as §1

[17] = test system: SNU16; details: SNU16 cells; 72 hours
In short: as §1

[18] = test system: SK4; details: SK4 cells (SEM subtype); 72 hours
In short: as §1

[19] = test system: SNU1967; details: SNU1967 cells; 72 hours
In short: as §1

[20] = test system: NCC59; details: NCC59 cells; 72 hours
In short: as §1

[21] = test system: Hs746T; details: Hs746T cells (SEM subtype); 72 hours
In short: as §1

[22] = test system: SNU668; details: SNU668 cells (SEM subtype); 72 hours
In short: as §1

[23] = test system: YCC3; details: YCC3 cells; 72 hours
In short: as §1

[24] = test system: YCC2; details: YCC2 cells; 72 hours
In short: as §1

[25] = test system: MKN28; details: MKN28 cells; 72 hours
In short: as §1

[26] = test system: NCC20; details: NCC20 cells; 72 hours
In short: as §1

[27] = test system: MKN74; details: MKN74 cells; 72 hours
In short: as §1

[28] = test system: NCC19; details: NCC19 cells; 72 hours
In short: as §1

[29] = test system: OCUM1; details: OCUM1 cells; 72 hours
In short: as §1

| SMILES | Average Area Under the Viability Curve (AUC), AUC norm value [1] | Average Area Under the Viability Curve (AUC), AUC norm value [2] | Average Area Under the Viability Curve (AUC), AUC norm value [3] | Average Area Under the Viability Curve (AUC), AUC norm value [4] | Average Area Under the Viability Curve (AUC), AUC norm value [5] | Average Area Under the Viability Curve (AUC), AUC norm value [6] | Average Area Under the Viability Curve (AUC), AUC norm value [7] | Average Area Under the Viability Curve (AUC), AUC norm value [8] | Average Area Under the Viability Curve (AUC), AUC norm value [9] | Average Area Under the Viability Curve (AUC), AUC norm value [10] | Average Area Under the Viability Curve (AUC), AUC norm value [11] | Average Area Under the Viability Curve (AUC), AUC norm value [12] | Average Area Under the Viability Curve (AUC), AUC norm value [13] | Average Area Under the Viability Curve (AUC), AUC norm value [14] | Average Area Under the Viability Curve (AUC), AUC norm value [15] | Average Area Under the Viability Curve (AUC), AUC norm value [16] | Average Area Under the Viability Curve (AUC), AUC norm value [17] | Average Area Under the Viability Curve (AUC), AUC norm value [18] | Average Area Under the Viability Curve (AUC), AUC norm value [19] | Average Area Under the Viability Curve (AUC), AUC norm value [20] | also measured |
| --- | --- | --- | --- | --- | --- | --- | --- | --- | --- | --- | --- | --- | --- | --- | --- | --- | --- | --- | --- | --- | --- |
| CC[C@]1(O)C[C@@H]2CN(CCc3c([nH]c4ccccc34)[C@@](C(=O)OC)(c3cc4c(cc3OC)N(C)[C@H]3[C@@](O)(C(=O)OC)[C@H](OC(C)=O)[C@]5(CC)C=CCN6CC[C@]43[C@@H]65)C2)C1 [Vinblastine] | 0.3772 | −0.4909 | 4.162 | 1.844 | −0.9285 | −1.129 | −1.194 | 0 | −0.3949 | −0.1721 | −0.9438 | 2.539 | −0.6159 | 4.096 | 0.2652 | 0.6497 | −1.3 | −1.0813 | −0.9411 | 2.833 | Average Area Under the Viability Curve (AUC), AUC norm value [21]: 1.1779; Average Area Under the Viability Curve (AUC), AUC norm value [22]: −1.037; Average Area Under the Viability Curve (AUC), AUC norm value [23]: 4.54; Average Area Under the Viability Curve (AUC), AUC norm value [24]: 2.06; Average Area Under the Viability Curve (AUC), AUC norm value [25]: −0.818; Average Area Under the Viability Curve (AUC), AUC norm value [26]: −1.614; Average Area Under the Viability Curve (AUC), AUC norm value [27]: 0.6639; Average Area Under the Viability Curve (AUC), AUC norm value [28]: 2.905; Average Area Under the Viability Curve (AUC), AUC norm value [29]: 2.514 |
| CC[C@]1(O)C[C@H]2CN(CCc3c([nH]c4ccccc34)[C@@](C(=O)OC)(c3cc4c(cc3OC)N(C=O)[C@H]3[C@@](O)(C(=O)OC)[C@H](OC(C)=O)[C@]5(CC)C=CCN6CC[C@]43[C@@H]65)C2)C1 [Vincristine] | −1.115 | −0.3792 | 5.036 | 2.226 | −1.53 | −1.75 | −1.965 | 0.9381 | −0.5253 | 1.615 | −3.156 | 1.755 | −1.42 | 4.8981 | 0.1348 | 0 | −1.522 | −1.283 | −1.3653 | 3.847 | Average Area Under the Viability Curve (AUC), AUC norm value [21]: 1.044; Average Area Under the Viability Curve (AUC), AUC norm value [22]: −1.315; Average Area Under the Viability Curve (AUC), AUC norm value [23]: 4.6576; Average Area Under the Viability Curve (AUC), AUC norm value [24]: 2.298; Average Area Under the Viability Curve (AUC), AUC norm value [25]: −0.493; Average Area Under the Viability Curve (AUC), AUC norm value [26]: −1.434; Average Area Under the Viability Curve (AUC), AUC norm value [27]: 0.209; Average Area Under the Viability Curve (AUC), AUC norm value [28]: 5.039; Average Area Under the Viability Curve (AUC), AUC norm value [29]: 0.6548 |
| O=C(CCCCCCC(=O)Nc1ccccc1)NO [Vorinostat (SAHA), Vorinostat] | 0.2975 | 0.08594 | 1.843 | 2.416 | 0.4282 | −0.5947 | 1.041 | 2.84 | −0.2152 | 0.8986 | −0.3421 | −0.04999 | −0.2285 | 0 | −0.4313 | −0.5737 | −0.7875 | 0.6434 | −0.2574 | 1.01 | Average Area Under the Viability Curve (AUC), AUC norm value [21]: −0.04774; Average Area Under the Viability Curve (AUC), AUC norm value [22]: 0.4303; Average Area Under the Viability Curve (AUC), AUC norm value [23]: 1.034; Average Area Under the Viability Curve (AUC), AUC norm value [24]: 0.09328; Average Area Under the Viability Curve (AUC), AUC norm value [25]: −0.08142; Average Area Under the Viability Curve (AUC), AUC norm value [26]: −0.9328; Average Area Under the Viability Curve (AUC), AUC norm value [27]: −0.07666; Average Area Under the Viability Curve (AUC), AUC norm value [28]: 0.2993; Average Area Under the Viability Curve (AUC), AUC norm value [29]: −0.5166 |
